Molecules are shown by their SMILES. *1 amine or outer side, *2 acyl side, *3 side chain or, on linkers, in order; H or OH if unused. Where a SMILES comes first, the peptide text is derived from it. Side-chain parts run from the residue outwards. [ ]: non-standard residue; d: D form. The star is where a group is joined. Isobutyryl(2-(3-CN-5-F-Ph)) = CC(C)(C(=O)*)c1cc(F)cc(C#N)c1; C20 diacid = O=C(O)CCCCCCCCCCCCCCCCCCC(=O)*; γGlu = O=C(O)[C@H](CCC(=O)[*:2])N[*:1]; X54 = Cc1cn(C(C)(C)C(=O)*)nc1C(F)(F)F; X81 = CCC(CC)(C(=O)*)c1cc(F)cc(C#N)c1; NMeβAla = CN(CCC(=O)[*:2])[*:1]; X28 = O=C(C1(n2cccn2)CCNCC1)*; AEEA = NCCOCCOCC(=O)O; Aib = CC(C)(N)C(=O)O; βAla = NCCC(=O)O

What all share (type): cell-based
Test [1] deals with T1, GLP-1 receptor (Homo sapiens, UniProt P43220). Put plainly: HitHunter cAMP assay, GLP-1 receptor. As to conditions: for EC50: CHO cells stably expressing human GLP-1 receptor, cAMP accumulation, 30 min, read-out: EC50 GLP-1R; for Emax: CHO cells, cAMP, normalized to maximum signal from GLP-1 (high) and DMSO (low), read-out: Emax GLP-1R.
Test [2] deals with T2, GIP receptor (Homo sapiens, UniProt P48546).
T2 sequence (P48546 22-466): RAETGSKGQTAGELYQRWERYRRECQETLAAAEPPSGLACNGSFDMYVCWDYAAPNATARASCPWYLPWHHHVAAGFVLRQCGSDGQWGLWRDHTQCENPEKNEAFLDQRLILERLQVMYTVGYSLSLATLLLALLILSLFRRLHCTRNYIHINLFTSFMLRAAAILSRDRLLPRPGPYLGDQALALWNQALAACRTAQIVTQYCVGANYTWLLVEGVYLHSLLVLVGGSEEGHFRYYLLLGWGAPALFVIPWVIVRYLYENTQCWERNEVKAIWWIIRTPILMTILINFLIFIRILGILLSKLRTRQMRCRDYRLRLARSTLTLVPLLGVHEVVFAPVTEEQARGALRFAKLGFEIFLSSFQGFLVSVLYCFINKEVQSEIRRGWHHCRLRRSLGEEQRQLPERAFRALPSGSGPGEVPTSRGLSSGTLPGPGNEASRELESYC
Put plainly: HitHunter cAMP assay, GIP receptor. The note with it: for EC50: CHO cells stably expressing GIP receptor, cAMP accumulation, 30 min, read-out: EC50 GIP-1R; for Emax: CHO cells, cAMP, normalized to maximum signal from GIP (high) and DMSO (low), read-out: Emax GIP-1R.
Procedure: CAMP accumulation was measured in Chinese hamster ovary (CHO) cells stably expressing the human GLP-1 receptor or GIP receptor using the HitHunter CAMP Assay for Small Molecules Kit (Eurofins). Briefly, cells were grown in Ham's F12 Nutrient Mix with 10% FBS and lifted with Cell dissociation buffer, Enzyme free, PBS based (ThermoFisher). Cells were pelleted and resuspended in Hank's buffered saline solution with 10 mM Hepes and 625 μM 3-isobutyl-1-methylxanthine. The antibody reagent was then added to cells at a 1:2 ratio and 5 μL of mixture was seeded in 384-well small volume white assay plates, at 10,000 cells/well. Cells were then treated with 50 nl compound in DMSO using an ECHO 550 acoustic dispenser (Labcyte) in a 20-point dose response format in triplicate for 30 min. Cells were the lysed and detection reagents added according to the manufacturer's protocol. After overnight incubation, luminescence was measured using a Perkin Elmer Envision plate reader. Raw data was normalized to the maximum signal from GLP-1 or GIP (high) and DMSO (low). Dose response curves were analyzed using GraphPad Prism 9.0.

The target in test [3] is T2, GIP receptor. Put plainly: PathHunter β-arrestin assay, GIP receptor. More on the design: host or cells: PathHunter CHO-K1 GIPR β-Arrestin Cell Line. As to conditions: β-arrestin-2 recruitment, PathHunter CHO-K1 GIPR β-Arrestin Cell Line, 90 min at 37° C.; normalized to GIP; read-out: GIPR β Arrestin EC50.
Test [4] has as its target T1, GLP-1 receptor. In words: PathHunter β-arrestin assay, GLP-1 receptor. As to conditions: β-arrestin-2 recruitment, PathHunter CHO-K1 GLP1R β-Arrestin Cell Line, 90 min at 37° C.; normalized to GLP-1; read-out: GLP-1R β Arrestin EC50. More on the design: host or cells: PathHunter CHO-K1 GLP1R β-Arrestin Cell Line.

T1 sequence (P43220 24-463): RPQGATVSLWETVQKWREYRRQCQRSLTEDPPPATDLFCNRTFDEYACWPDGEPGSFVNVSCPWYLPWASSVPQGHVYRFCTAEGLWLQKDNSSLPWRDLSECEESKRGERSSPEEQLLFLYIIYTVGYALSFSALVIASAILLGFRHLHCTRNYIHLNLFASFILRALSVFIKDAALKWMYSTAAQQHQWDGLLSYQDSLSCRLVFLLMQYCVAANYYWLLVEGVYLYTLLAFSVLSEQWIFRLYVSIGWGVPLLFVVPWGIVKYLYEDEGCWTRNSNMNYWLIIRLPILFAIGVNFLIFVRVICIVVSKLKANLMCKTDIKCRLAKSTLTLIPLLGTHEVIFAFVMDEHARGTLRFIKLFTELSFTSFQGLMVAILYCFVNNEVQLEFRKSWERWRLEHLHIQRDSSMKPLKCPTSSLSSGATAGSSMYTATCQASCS

Consider `CC[C@H](C)[C@H](NC(=O)[C@H](CC(C)C)NC(=O)[C@H](Cc1c[nH]c2ccccc12)NC(=O)[C@H](CCC(N)=O)NC(=O)[C@@H](NC(=O)[C@H](Cc1ccccc1)NC(=O)[C@H](C)NC(=O)[C@H](CCCCNC(=O)COCCOCCNC(=O)COCCOCCNC(=O)CC[C@H](NC(=O)CCCCCCCCCCCCCCCCCCC(=O)O)C(=O)O)NC(=O)[C@H](CCC(N)=O)NC(=O)[C@H](C)NC(=O)[C@@H](NC(=O)[C@H](CCCCN)NC(=O)[C@H](CC(=O)O)NC(=O)[C@H](CC(C)C)NC(=O)C(C)(C)NC(=O)[C@@H](NC(=O)[C@H](CO)NC(=O)[C@H](Cc1ccc(O)cc1)NC(=O)[C@H](CC(=O)O)NC(=O)[C@H](CO)NC(=O)[C@@H](NC(=O)[C@H](Cc1ccccc1)NC(=O)[C@@H](NC(=O)CNC(=O)[C@H](CCC(=O)O)NC(=O)CCNC(=O)C1(n2cccn2)CCNCC1)[C@@H](C)O)[C@@H](C)O)[C@@H](C)CC)[C@@H](C)CC)C(C)C)C(=O)N[C@@H](C)C(=O)NCC(=O)NCC(=O)N1CCC[C@H]1C(=O)N[C@@H](CO)C(=O)N[C@@H](CO)C(=O)NCC(=O)N[C@@H](C)C(=O)N1CCC[C@H]1C(=O)N1CCC[C@H]1C(=O)N1CCC[C@H]1C(=O)N[C@@H](CO)C(N)=O` [Compound 160] ({X28-βAla}-EGTFTSDYSI[Aib]LDKIAQK([AEEA-AEEA-γGlu-C20 diacid])AFVQWLIAGGPSSGAPPPS-NH2), for which the EC50 in test [1] was 10 to 100 nM; in test [2], 100 to 1000 nM; in test [3], more than 1000 nM; in test [4], more than 1000 nM. Also, the Emax in test [1] amounted to 97%; in test [2], 94%.
In the case of `CC[C@H](C)[C@H](NC(=O)[C@H](CC(C)C)NC(=O)[C@H](Cc1c[nH]c2ccccc12)NC(=O)[C@H](CCC(N)=O)NC(=O)[C@@H](NC(=O)[C@H](Cc1ccccc1)NC(=O)[C@H](C)NC(=O)[C@H](CCCCNC(=O)COCCOCCNC(=O)COCCOCCNC(=O)CC[C@H](NC(=O)CCCCCCCCCCCCCCCCCCC(=O)O)C(=O)O)NC(=O)[C@H](CCC(N)=O)NC(=O)[C@H](C)NC(=O)[C@@H](NC(=O)[C@H](CCCCN)NC(=O)[C@H](CC(=O)O)NC(=O)[C@H](CC(C)C)NC(=O)C(C)(C)NC(=O)[C@@H](NC(=O)[C@H](CO)NC(=O)[C@H](Cc1ccc(O)cc1)NC(=O)[C@H](CC(=O)O)NC(=O)[C@H](CO)NC(=O)[C@@H](NC(=O)[C@H](Cc1ccccc1)NC(=O)[C@@H](NC(=O)CNC(=O)[C@H](CCC(=O)O)NC(=O)CCNC(=O)C(CC)(CC)c1cc(F)cc(C#N)c1)[C@@H](C)O)[C@@H](C)O)[C@@H](C)CC)[C@@H](C)CC)C(C)C)C(=O)N[C@@H](C)C(=O)NCC(=O)NCC(=O)N1CCC[C@H]1C(=O)N[C@@H](CO)C(=O)N[C@@H](CO)C(=O)NCC(=O)N[C@@H](C)C(=O)N1CCC[C@H]1C(=O)N1CCC[C@H]1C(=O)N1CCC[C@H]1C(=O)N[C@@H](CO)C(N)=O` [Compound 162] ({X81-βAla}-EGTFTSDYSI[Aib]LDKIAQK([AEEA-AEEA-γGlu-C20 diacid])AFVQWLIAGGPSSGAPPPS-NH2), the EC50 in test [1] is 1 to 10 nM; in test [2], 1 to 10 nM; in test [3] it was less than 1000 nM; in test [4] it was more than 1000 nM. For the same compound, the maximum response (Emax) in test [1] is 127%; in test [2], 113%.
On to `CC[C@H](C)[C@H](NC(=O)[C@H](CC(C)C)NC(=O)[C@H](Cc1c[nH]c2ccccc12)NC(=O)[C@H](CCC(N)=O)NC(=O)[C@@H](NC(=O)[C@H](Cc1ccccc1)NC(=O)[C@H](C)NC(=O)[C@H](CCCCNC(=O)COCCOCCNC(=O)COCCOCCNC(=O)CC[C@H](NC(=O)CCCCCCCCCCCCCCCCCCC(=O)O)C(=O)O)NC(=O)[C@H](CCC(N)=O)NC(=O)[C@H](C)NC(=O)[C@@H](NC(=O)[C@H](CCCCN)NC(=O)[C@H](CC(=O)O)NC(=O)[C@H](CC(C)C)NC(=O)C(C)(C)NC(=O)[C@@H](NC(=O)[C@H](CO)NC(=O)[C@H](Cc1ccc(O)cc1)NC(=O)[C@H](CC(=O)O)NC(=O)[C@H](CO)NC(=O)[C@@H](NC(=O)[C@H](Cc1ccccc1)NC(=O)[C@@H](NC(=O)CNC(=O)[C@H](CCC(=O)O)NC(=O)CCNC(=O)C(C)(C)n1cc(C)c(C(F)(F)F)n1)[C@@H](C)O)[C@@H](C)O)[C@@H](C)CC)[C@@H](C)CC)C(C)C)C(=O)N[C@@H](C)C(=O)NCC(=O)NCC(=O)N1CCC[C@H]1C(=O)N[C@@H](CO)C(=O)N[C@@H](CO)C(=O)NCC(=O)N[C@@H](C)C(=O)N1CCC[C@H]1C(=O)N1CCC[C@H]1C(=O)N1CCC[C@H]1C(=O)N[C@@H](CO)C(N)=O` [Compound 158] ({X54-βAla}-EGTFTSDYSI[Aib]LDKIAQK([AEEA-AEEA-γGlu-C20 diacid])AFVQWLIAGGPSSGAPPPS-NH2), for which the EC50 was 0.1 to 1 nM in test [1], 10 to 100 nM in test [2], more than 1000 nM in test [3] and more than 1000 nM in test [4]. For the same compound, the maximal response (Emax) in test [1] amounted to 97%; in test [2] it was 118%.
For `CC[C@H](C)[C@H](NC(=O)[C@H](CC(C)C)NC(=O)[C@H](Cc1c[nH]c2ccccc12)NC(=O)[C@H](CCC(N)=O)NC(=O)[C@@H](NC(=O)[C@H](Cc1ccccc1)NC(=O)[C@H](C)NC(=O)[C@H](CCCCNC(=O)COCCOCCNC(=O)COCCOCCNC(=O)CC[C@H](NC(=O)CCCCCCCCCCCCCCCCCCC(=O)O)C(=O)O)NC(=O)[C@H](CCC(N)=O)NC(=O)[C@H](C)NC(=O)[C@@H](NC(=O)[C@H](CCCCN)NC(=O)[C@H](CC(=O)O)NC(=O)[C@H](CC(C)C)NC(=O)C(C)(C)NC(=O)[C@@H](NC(=O)[C@H](CO)NC(=O)[C@H](Cc1ccc(O)cc1)NC(=O)[C@H](CC(=O)O)NC(=O)[C@H](CO)NC(=O)[C@@H](NC(=O)[C@H](Cc1ccccc1)NC(=O)[C@@H](NC(=O)CNC(=O)[C@H](CCC(=O)O)NC(=O)CCN(C)C(=O)C(C)(C)c1cc(F)cc(C#N)c1)[C@@H](C)O)[C@@H](C)O)[C@@H](C)CC)[C@@H](C)CC)C(C)C)C(=O)N[C@@H](C)C(=O)NCC(=O)NCC(=O)N1CCC[C@H]1C(=O)N[C@@H](CO)C(=O)N[C@@H](CO)C(=O)NCC(=O)N[C@@H](C)C(=O)N1CCC[C@H]1C(=O)N1CCC[C@H]1C(=O)N1CCC[C@H]1C(=O)N[C@@H](CO)C(N)=O` [Compound 201] ({Isobutyryl(2-(3-CN-5-F-Ph))}-[NMeβAla]EGTFTSDYSI[Aib]LDKIAQK([AEEA-AEEA-γGlu-C20 diacid])AFVQWLIAGGPSSGAPPPS-NH2), the EC50 in test [1] was 10 to 100 nM; in test [2], 100 to 1000 nM; in test [3], more than 1000 nM; in test [4], more than 1000 nM. Further, the Emax in test [1] came out at 108%; in test [2], 107%.

Source of the values: US12281149B2, “Modulators of G-protein coupled receptors” (priority 2021, dated 2025).
